Literature values in patent US20250176603A1, “Vegetable-Based Food Product” (L-CONE SP. Z O. O., priority 2023, published 2025).
“Also recorded” adds a separate entry of the source.

Legend:
[1] = test system: diethylnitrosamine-induced hepatocarcinogenesis; conditions: rats
[2] = test system: lipopolysaccharide (LPS)-activated BV2 microglia
[3] = in vivo
Ehrlich ascites tumor = conditions: mice
[4] = test system: prostate cancer patients undergoing radiotherapy
[5] = test system: pancreatic cancer patients resistant to gemcitabine chemotherapy; conditions: 8 g/day in a divided dose for 11 months
TPOAb antibody = conditions: 200 ug for 3 months
[6] = test system: acetic acid-induced ulcerative colitis; conditions: oral administration
DSS-induced colitis = DSS-induced colitis model

**Q.** With `C=CCC(=NOS(=O)(=O)O)S[C@@H]1O[C@H](CO)[C@@H](O)[C@H](O)[C@H]1O` (stereo in doubt) [Sinigrin] as the molecule, how does the diethylnitrosamine-induced hepatocarcinogenesis [1] read?
**A.** inhibited

**Q.** With `O=CC=Cc1ccccc1` [Cinnamaldehyde] as the molecule, how does the tau protein aggregation (tau protein) read?
**A.** potential in inhibiting

**Q.** What about the “production and expression of NO, IL-1b, IL-6 and TNF-a” value [2] of the same molecule?
**A.** decrease

**Q.** With `C[S+]([O-])CCCCN=C=S` (centres unmarked) [Sulforaphane] as the molecule, how does the level of bioavailability [3] read?
**A.** 74%

**Q.** With `C=CCN=C=S` [allyl isothiocyanate] as the molecule, how does the cytotoxic effect (lung cancer cells) read?
**A.** cytotoxic effect

**Q.** And the “Ehrlich ascites tumor growth” value (Ehrlich ascites tumor)?
**A.** inhibited

**Q.** And the cytotoxic effect (bladder)?
**A.** cytotoxic effect

**Q.** For `COc1cc(/C=C/C(=O)CC(=O)/C=C/c2ccc(O)c(OC)c2)ccc1O` [curcumin], which “radiation side effects and therapeutic efficacy” value [4] is on record?
**A.** alleviate the side effects of radiation and enhance its therapeutic efficacy; also recorded: mitigate radiation side effects and enhance therapeutic efficacy

**Q.** What about the “chances of longer survival” value [5] of the same molecule?
**A.** significantly increased; also recorded: increased significantly

**Q.** Which cytotoxic effects (K-562 cells) does the source give for `O=C(/C=C/C=C/c1ccc2c(c1)OCO2)N1CCCCC1` [piperine] here?
**A.** strong cytotoxic effects

**Q.** With `C[Se]CC[C@H](N)C(=O)O` [selenomethionine] as the molecule, how does the TPOAb antibody levels (TPOAb antibody) read?
**A.** significantly reduced

**Q.** Which “IL-6 and TNF-α activity” value [6] does the source give for `COc1cc(C2Oc3cc([C@H]4Oc5cc(O)cc(O)c5C(=O)[C@@H]4O)ccc3OC2CO)ccc1O` (some centres unmarked) [silybin] here?
**A.** significant reduction

**Q.** Which TPOAb antibody levels (TPOAb antibody) does the source give for `O=[Se](=O)(O)O` [sodium selenate] here?
**A.** significantly reduced

**Q.** Which NF-κB activation (DSS-induced colitis) does the source give for `O=C1c2c(O)cc(O)cc2O[C@H](c2ccc(O)c(O)c2)[C@H]1O` [taxifolin] here?
**A.** reduce
